{"source": "ChEMBL document CHEMBL1149784", "about": "“Discovery of a new anilino-3H-pyrrolo[3,2-f]quinoline derivative as potential anti-cancer agent” (Eur J Med Chem, 2008)", "key": {"[1]": {"system": "OVCAR-3", "test": "Growth inhibition of human OVCAR-3 cells after 72 hrs by trypan blue assay", "format": "functional, cell-based", "conditions": "OVCAR-3, 72 h"}, "[2]": {"system": "OVCAR-3", "test": "Cell cycle arrest in human OVCAR-3 cells assessed as accumulation at subG0 phase at 1 uM by flow cytometry", "format": "functional"}, "[3]": {"system": "OVCAR-3", "test": "Cell cycle arrest in human OVCAR-3 cells assessed as accumulation at S phase at 10 uM by flow cytometry", "format": "functional"}, "[4]": {"system": "OVCAR-3", "test": "Cell cycle arrest in human OVCAR-3 cells assessed as accumulation at G0/G1 phase at 1 uM by flow cytometry", "format": "functional"}, "[5]": {"system": "OVCAR-3", "test": "Cell cycle arrest in human OVCAR-3 cells assessed as accumulation at G0/G1 phase at 10 uM by flow cytometry", "format": "functional"}, "[6]": {"system": "OVCAR-3", "test": "Cell cycle arrest in human OVCAR-3 cells assessed as accumulation at S phase at 1 uM by flow cytometry", "format": "functional"}, "[7]": {"system": "Salmonidae", "test": "Binding affinity to Salmon testes DNA assessed as drug-DNA complex formation by linear flow dichroism method"}, "[8]": {"system": "OVCAR-3", "test": "Cell cycle arrest in human OVCAR-3 cells assessed as accumulation at G2/M phase at 1 uM by flow cytometry", "format": "functional"}, "[9]": {"system": "OVCAR-3", "test": "Cell cycle arrest in human OVCAR-3 cells assessed as accumulation at G0/G1 phase at 5 uM by flow cytometry", "format": "functional"}, "[10]": {"system": "HL-60", "test": "Growth inhibition of human HL60 cells after 72 hrs by trypan blue assay", "format": "functional, cell-based", "conditions": "HL-60, 72 h"}, "[11]": {"system": "OVCAR-3", "test": "Cell cycle arrest in human OVCAR-3 cells assessed as accumulation at subG0 phase at 10 uM by flow cytometry", "format": "functional"}, "[12]": {"target": "DNA topoisomerase 2-alpha (Homo sapiens) (UniProt P11388)", "sequence (P11388 whole entry)": "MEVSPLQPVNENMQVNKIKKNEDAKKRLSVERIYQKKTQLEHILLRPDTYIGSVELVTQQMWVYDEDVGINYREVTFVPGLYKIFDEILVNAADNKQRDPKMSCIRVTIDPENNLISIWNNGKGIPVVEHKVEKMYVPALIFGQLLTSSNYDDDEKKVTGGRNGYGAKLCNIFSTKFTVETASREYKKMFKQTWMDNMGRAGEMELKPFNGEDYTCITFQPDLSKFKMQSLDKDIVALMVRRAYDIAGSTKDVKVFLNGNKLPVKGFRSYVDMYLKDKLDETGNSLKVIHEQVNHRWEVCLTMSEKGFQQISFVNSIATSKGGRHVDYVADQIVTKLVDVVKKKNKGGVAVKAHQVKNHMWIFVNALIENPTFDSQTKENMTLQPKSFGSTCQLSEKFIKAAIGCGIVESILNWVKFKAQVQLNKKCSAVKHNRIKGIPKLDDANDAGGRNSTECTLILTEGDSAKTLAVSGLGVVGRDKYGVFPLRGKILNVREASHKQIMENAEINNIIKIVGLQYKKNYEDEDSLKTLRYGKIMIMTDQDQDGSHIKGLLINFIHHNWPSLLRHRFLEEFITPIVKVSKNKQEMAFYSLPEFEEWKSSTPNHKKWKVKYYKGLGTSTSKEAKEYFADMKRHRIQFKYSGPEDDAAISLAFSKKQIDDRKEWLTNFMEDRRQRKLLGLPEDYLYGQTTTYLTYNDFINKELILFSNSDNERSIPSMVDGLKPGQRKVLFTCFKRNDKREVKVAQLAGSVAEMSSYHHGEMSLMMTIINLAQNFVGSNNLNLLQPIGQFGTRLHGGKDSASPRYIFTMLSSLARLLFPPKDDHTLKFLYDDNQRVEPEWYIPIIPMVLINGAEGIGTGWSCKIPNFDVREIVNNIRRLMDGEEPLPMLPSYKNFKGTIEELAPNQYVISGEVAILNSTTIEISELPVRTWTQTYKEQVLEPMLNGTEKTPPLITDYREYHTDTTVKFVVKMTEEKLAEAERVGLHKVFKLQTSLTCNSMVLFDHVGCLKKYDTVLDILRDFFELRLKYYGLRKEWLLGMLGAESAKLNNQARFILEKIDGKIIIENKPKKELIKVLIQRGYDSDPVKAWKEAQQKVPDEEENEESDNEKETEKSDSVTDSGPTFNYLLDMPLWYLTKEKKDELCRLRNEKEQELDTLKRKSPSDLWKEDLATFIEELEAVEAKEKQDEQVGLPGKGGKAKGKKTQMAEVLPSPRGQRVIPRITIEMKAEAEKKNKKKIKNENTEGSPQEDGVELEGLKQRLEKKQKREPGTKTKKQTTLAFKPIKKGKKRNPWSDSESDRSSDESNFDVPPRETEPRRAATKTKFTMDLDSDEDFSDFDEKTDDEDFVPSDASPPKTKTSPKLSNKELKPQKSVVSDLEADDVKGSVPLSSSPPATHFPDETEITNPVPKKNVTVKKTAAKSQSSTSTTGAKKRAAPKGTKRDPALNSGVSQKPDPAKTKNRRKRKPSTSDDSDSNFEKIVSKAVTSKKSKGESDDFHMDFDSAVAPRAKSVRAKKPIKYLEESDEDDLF", "test": "Inhibition of human recombinant topoisomerase 2 assessed as relaxation of supercoiled pBR322 DNA"}, "[13]": {"system": "HeLa", "test": "Growth inhibition of human HeLa cells after 72 hrs by trypan blue assay", "format": "functional, cell-based"}, "[14]": {"system": "OVCAR-3", "test": "Cell cycle arrest in human OVCAR-3 cells assessed as accumulation at S phase at 5 uM by flow cytometry", "format": "functional"}, "[15]": {"system": "OVCAR-3", "test": "Cell cycle arrest in human OVCAR-3 cells assessed as accumulation at G2/M phase at 5 uM by flow cytometry", "format": "functional"}, "[16]": {"test": "Growth inhibition of human JR8 cells after 72 hrs by trypan blue assay", "format": "functional, cell-based", "conditions": "JR8, 72 h"}, "[17]": {"system": "OVCAR-3", "test": "Cell cycle arrest in human OVCAR-3 cells assessed as accumulation at subG0 phase at 5 uM by flow cytometry", "format": "functional"}, "[18]": {"system": "OVCAR-3", "test": "Cell cycle arrest in human OVCAR-3 cells assessed as accumulation at G2/M phase at 10 uM by flow cytometry", "format": "functional"}, "[19]": {"system": "OVCAR-3", "test": "Cell cycle arrest in human OVCAR-3 cells assessed as accumulation at subG0 phase at 16 uM by flow cytometry", "format": "functional"}, "[20]": {"system": "OVCAR-3", "test": "Cell cycle arrest in human OVCAR-3 cells assessed as accumulation at G2/M phase at 16 uM by flow cytometry", "format": "functional"}, "[21]": {"system": "OVCAR-3", "test": "Cell cycle arrest in human OVCAR-3 cells assessed as accumulation at S phase at 16 uM by flow cytometry", "format": "functional"}, "[22]": {"system": "OVCAR-3", "test": "Cell cycle arrest in human OVCAR-3 cells assessed as accumulation at G0/G1 phase at 16 uM by flow cytometry", "format": "functional"}}, "note": "The source made the active and inactive calls. The rule behind the calls is not given here."}
{"compound": "CC(=O)c1ccc(Nc2ccnc3ccc4[nH]ccc4c23)cc1.Cl", "values": [{"measurement": "IC50", "setting": "[1]", "value": 530, "unit": "nM"}, {"measurement": "Activity", "setting": "[2]", "value": 7.6, "unit": "%"}, {"measurement": "Activity", "setting": "[3]", "value": 11.6, "unit": "%"}, {"measurement": "Activity", "setting": "[4]", "value": 51.9, "unit": "%"}, {"measurement": "Activity", "setting": "[5]", "value": 24.5, "unit": "%"}, {"measurement": "Activity", "setting": "[6]", "value": 9.4, "unit": "%"}, {"measurement": "Activity", "setting": "[7]", "value": "Active"}, {"measurement": "Activity", "setting": "[8]", "value": 31.4, "unit": "%"}, {"measurement": "Activity", "setting": "[9]", "value": 24.7, "unit": "%"}, {"measurement": "IC50", "setting": "[10]", "value": 500, "unit": "nM"}, {"measurement": "Activity", "setting": "[11]", "value": 0.5, "unit": "%"}, {"measurement": "Activity", "setting": "[12]", "value": "Dose-dependent effect"}, {"measurement": "IC50", "setting": "[13]", "value": 3400, "unit": "nM"}, {"measurement": "Activity", "setting": "[14]", "value": 13.6, "unit": "%"}, {"measurement": "Activity", "setting": "[15]", "value": 57.8, "unit": "%"}, {"measurement": "IC50", "setting": "[16]", "value": 590, "unit": "nM"}, {"measurement": "Activity", "setting": "[17]", "value": 4.3, "unit": "%"}, {"measurement": "Activity", "setting": "[18]", "value": 63.7, "unit": "%"}]}
{"compound": "COc1cc(NS(C)(=O)=O)ccc1Nc1c2ccccc2nc2ccccc12", "note": "[AMSACRINE]", "values": [{"measurement": "Activity", "setting": "[19]", "value": 1.8, "unit": "%"}, {"measurement": "Activity", "setting": "[20]", "value": 41.3, "unit": "%"}, {"measurement": "Activity", "setting": "[21]", "value": 12.7, "unit": "%"}, {"measurement": "Activity", "setting": "[22]", "value": 44.7, "unit": "%"}]}
{"compound": "CC[C@]1(O)C[C@H]2CN(CCc3c([nH]c4ccccc34)[C@@](C(=O)OC)(c3cc4c(cc3OC)N(C=O)[C@H]3[C@@](O)(C(=O)OC)[C@H](OC(C)=O)[C@]5(CC)C=CCN6CC[C@]43[C@@H]65)C2)C1", "note": "[VINCRISTINE]", "values": [{"measurement": "Activity", "setting": "[2]", "value": 0.5, "unit": "%"}, {"measurement": "Activity", "setting": "[4]", "value": 46.8, "unit": "%"}, {"measurement": "Activity", "setting": "[6]", "value": 7.9, "unit": "%"}, {"measurement": "Activity", "setting": "[8]", "value": 45.2, "unit": "%"}]}
